Data published in patent US10537563B2, “Methods for treating ocular disease using inhibitors of CSF-1R” (NOVARTIS AG, priority 2016, dated 2020).

Columns and labels:
Abl = Abl (Homo sapiens, UniProt P00519); experiment: In vitro kinase assay (Table 1); type: biochemical
Aurora_A = Aurora_A (Homo sapiens, UniProt O14965); experiment: In vitro kinase assay (Table 1); type: biochemical
Blk = Blk (Homo sapiens, UniProt P51451); experiment: In vitro kinase assay (Table 1); type: biochemical
Ck1gamma2 = Ck1gamma2 (Homo sapiens, UniProt P78368); experiment: In vitro kinase assay (Table 1); type: biochemical
Erk1 = Erk1 (Homo sapiens, UniProt P27361); experiment: In vitro kinase assay (Table 1); type: biochemical
Chain of Erk1 (P27361 whole entry, species assumed): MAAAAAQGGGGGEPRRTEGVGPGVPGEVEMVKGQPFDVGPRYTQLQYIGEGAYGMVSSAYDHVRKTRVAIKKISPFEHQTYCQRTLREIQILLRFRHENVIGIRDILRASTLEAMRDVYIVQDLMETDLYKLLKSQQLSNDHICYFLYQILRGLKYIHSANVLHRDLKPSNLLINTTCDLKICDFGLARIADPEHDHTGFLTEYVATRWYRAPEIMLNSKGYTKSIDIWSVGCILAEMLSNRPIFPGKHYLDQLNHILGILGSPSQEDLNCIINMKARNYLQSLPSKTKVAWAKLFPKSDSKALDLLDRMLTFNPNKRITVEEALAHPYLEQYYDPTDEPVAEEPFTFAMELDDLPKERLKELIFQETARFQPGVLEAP

Hyl = Hyl (Homo sapiens, UniProt P42679); experiment: In vitro kinase assay (Table 1); type: biochemical
JNK2alpha2 = JNK2alpha2 (Homo sapiens, UniProt P45984); experiment: In vitro kinase assay (Table 1); type: biochemical
Chain of JNK2alpha2 (P45984 whole entry): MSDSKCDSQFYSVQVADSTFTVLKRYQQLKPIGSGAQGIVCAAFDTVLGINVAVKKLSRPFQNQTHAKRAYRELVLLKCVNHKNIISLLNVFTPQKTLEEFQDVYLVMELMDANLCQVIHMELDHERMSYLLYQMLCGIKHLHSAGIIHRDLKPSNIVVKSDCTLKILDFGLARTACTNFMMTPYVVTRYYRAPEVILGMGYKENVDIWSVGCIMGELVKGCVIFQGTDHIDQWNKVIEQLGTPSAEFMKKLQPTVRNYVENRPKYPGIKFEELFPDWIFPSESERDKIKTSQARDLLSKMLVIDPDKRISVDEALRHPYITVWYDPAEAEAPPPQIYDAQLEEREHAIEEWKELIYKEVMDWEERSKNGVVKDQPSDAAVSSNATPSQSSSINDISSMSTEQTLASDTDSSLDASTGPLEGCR

Nek2 = Nek2 (Homo sapiens, UniProt P51955); experiment: In vitro kinase assay (Table 1); type: biochemical
Chain of Nek2 (P51955 whole entry, species assumed): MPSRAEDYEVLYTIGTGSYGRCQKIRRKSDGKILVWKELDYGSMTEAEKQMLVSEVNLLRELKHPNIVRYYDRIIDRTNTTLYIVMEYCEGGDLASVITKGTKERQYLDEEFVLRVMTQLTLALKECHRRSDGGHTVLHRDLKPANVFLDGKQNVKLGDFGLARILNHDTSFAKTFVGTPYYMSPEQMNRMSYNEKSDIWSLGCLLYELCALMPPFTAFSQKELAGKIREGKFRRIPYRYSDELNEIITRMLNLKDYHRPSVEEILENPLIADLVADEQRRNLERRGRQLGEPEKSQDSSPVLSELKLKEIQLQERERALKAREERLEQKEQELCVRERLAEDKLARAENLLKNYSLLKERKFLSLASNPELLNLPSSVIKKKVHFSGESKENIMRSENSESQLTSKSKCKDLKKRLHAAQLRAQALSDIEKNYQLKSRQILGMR

PHKG2 = PHKG2 (Homo sapiens, UniProt P15735); experiment: In vitro kinase assay (Table 1); type: biochemical
PIK3C_VPS34 = PIK3C_VPS34 (Homo sapiens, UniProt Q8NEB9); experiment: In vitro kinase assay (Table 1); type: biochemical
PIK4Cbeta = PIK4Cbeta (Homo sapiens, UniProt Q9UBF8); experiment: In vitro kinase assay (Table 1); type: biochemical
Pim2 = Pim2 (Homo sapiens, UniProt Q9P1W9); experiment: In vitro kinase assay (Table 1); type: biochemical
Pim3 = Pim3 (Homo sapiens, UniProt Q86V86); experiment: In vitro kinase assay (Table 1); type: biochemical
PKC_theta = PKC_theta (Homo sapiens, UniProt Q04759); experiment: In vitro kinase assay (Table 1); type: biochemical
Chain of PKC_theta (Q04759 whole entry): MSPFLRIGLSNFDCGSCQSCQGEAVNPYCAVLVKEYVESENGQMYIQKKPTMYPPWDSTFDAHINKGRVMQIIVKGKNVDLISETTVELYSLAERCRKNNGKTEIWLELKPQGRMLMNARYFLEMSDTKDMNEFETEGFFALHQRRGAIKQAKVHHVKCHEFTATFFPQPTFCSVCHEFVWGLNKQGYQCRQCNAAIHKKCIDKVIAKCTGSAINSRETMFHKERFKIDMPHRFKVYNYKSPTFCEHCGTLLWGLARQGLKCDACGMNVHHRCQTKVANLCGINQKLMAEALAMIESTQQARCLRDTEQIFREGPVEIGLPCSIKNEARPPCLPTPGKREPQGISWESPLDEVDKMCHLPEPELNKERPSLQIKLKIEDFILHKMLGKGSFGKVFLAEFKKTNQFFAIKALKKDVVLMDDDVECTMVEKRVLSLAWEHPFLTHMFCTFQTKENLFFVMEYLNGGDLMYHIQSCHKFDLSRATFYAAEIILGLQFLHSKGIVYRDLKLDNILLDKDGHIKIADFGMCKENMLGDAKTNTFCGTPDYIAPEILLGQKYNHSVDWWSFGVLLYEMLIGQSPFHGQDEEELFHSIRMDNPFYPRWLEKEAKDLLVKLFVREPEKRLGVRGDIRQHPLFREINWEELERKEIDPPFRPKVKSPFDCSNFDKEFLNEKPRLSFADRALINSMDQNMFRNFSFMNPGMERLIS

Ron = Ron (Homo sapiens, UniProt Q04912); experiment: In vitro kinase assay (Table 1); type: biochemical
TSSK1 = TSSK1 (Homo sapiens, UniProt Q9BXA7); experiment: In vitro kinase assay (Table 1); type: biochemical
ZAP70 = ZAP70 (Homo sapiens, UniProt P43403); experiment: In vitro kinase assay (Table 1); type: biochemical
PDGFRKalphaT674I (h) = target: T1, PDGFRKalphaT674I (h) (Homo sapiens, UniProt P16234, T674I); experiment: Kinase profiling at Invitrogen; type: biochemical
T1 construct: purchased Invitrogen
T1 sequence (P16234 550-1089 T674I limits assumed): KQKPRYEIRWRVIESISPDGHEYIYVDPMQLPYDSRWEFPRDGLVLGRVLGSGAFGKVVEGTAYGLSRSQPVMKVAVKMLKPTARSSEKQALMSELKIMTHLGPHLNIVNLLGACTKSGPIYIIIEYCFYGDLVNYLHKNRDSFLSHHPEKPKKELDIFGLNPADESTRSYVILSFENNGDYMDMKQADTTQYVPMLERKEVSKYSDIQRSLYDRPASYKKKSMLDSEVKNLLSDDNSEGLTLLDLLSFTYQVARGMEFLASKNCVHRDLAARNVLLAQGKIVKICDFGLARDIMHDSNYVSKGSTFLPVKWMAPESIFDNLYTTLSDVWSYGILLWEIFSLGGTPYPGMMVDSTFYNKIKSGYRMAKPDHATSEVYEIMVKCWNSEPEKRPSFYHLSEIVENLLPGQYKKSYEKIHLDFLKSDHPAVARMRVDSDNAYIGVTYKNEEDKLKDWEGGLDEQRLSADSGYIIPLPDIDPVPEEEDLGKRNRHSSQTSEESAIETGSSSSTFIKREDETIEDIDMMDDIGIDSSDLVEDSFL

BaF-NPM-ALK = target: T2, BaF-NPM-ALK (Homo sapiens, UniProt Q9UM73); experiment: BaF3 proliferation assay; type: cell-based, murine
T2 construct: expressed in transfected cells; host or cells: BaF3 (murine pro-B cell line); the other entry of the earlier key: NPM1 (P06748, Nucleophosmin)

BaF-Tel-KDR = target: T3, BaF-Tel-KDR (Homo sapiens, UniProt P35968); experiment: BaF3 proliferation assay; type: cell-based, murine
T3 construct: fused on or other part: P41212 (Transcription factor ETV6)
T3 sequence (P35968 834-1162 limits assumed, change not shown): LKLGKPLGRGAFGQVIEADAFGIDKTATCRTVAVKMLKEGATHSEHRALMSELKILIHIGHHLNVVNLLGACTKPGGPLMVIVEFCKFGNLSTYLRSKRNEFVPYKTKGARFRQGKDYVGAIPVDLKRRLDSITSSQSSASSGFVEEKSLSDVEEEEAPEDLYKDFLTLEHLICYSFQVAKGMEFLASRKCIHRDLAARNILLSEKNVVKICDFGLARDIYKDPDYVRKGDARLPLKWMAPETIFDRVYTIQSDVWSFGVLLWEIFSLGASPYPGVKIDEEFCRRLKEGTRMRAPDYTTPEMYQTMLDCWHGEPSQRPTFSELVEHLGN

BAF/Tel-EphB2-Q2/sACP = target: T4, BAF/Tel-EphB2-Q2/sACP (Homo sapiens, UniProt P29323); experiment: BaF3 proliferation assay; type: cell-based, murine
T4 construct: fused on or other part: P41212 (Transcription factor ETV6)
T4 sequence (P29323 621-884 limits assumed, change not shown): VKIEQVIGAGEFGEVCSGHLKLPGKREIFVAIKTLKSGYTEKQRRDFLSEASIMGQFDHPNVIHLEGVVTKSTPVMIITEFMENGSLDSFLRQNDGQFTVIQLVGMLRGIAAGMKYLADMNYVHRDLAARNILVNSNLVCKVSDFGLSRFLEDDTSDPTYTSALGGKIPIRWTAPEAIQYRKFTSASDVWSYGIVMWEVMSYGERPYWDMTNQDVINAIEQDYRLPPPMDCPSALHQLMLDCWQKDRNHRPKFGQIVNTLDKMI

BAF/Tel-FLT4-Q2/sACP = target: T5, BAF/Tel-FLT4-Q2/sACP (Homo sapiens, UniProt P35916); experiment: BaF3 proliferation assay; type: cell-based, murine
T5 construct: fused on or other part: P41212 (Transcription factor ETV6)
T5 sequence (P35916 845-1173 limits assumed, change not shown): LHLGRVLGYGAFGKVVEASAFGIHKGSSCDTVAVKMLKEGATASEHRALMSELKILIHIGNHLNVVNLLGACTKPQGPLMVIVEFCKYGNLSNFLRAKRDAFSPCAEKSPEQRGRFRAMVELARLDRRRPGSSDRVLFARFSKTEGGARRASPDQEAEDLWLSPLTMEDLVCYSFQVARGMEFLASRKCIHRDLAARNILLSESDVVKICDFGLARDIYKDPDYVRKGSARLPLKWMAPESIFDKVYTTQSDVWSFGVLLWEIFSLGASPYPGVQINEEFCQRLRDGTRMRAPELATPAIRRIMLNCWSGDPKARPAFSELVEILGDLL

BAF/Tel-KDR-Q4/sACP = target: T6, BAF/Tel-KDR-Q4/sACP (Homo sapiens, UniProt P35968); experiment: BaF3 proliferation assay; type: cell-based, murine
T6 construct: fused on or other part: P41212 (Transcription factor ETV6)
T6 sequence (P35968 834-1162 limits assumed, change not shown): as the sequence (P35968 834-1162 limits assumed, change not shown) above

BAF/Tel-RET-Q1/sACP = target: T7, BAF/Tel-RET-Q1/sACP (Homo sapiens, UniProt P07949); experiment: BaF3 proliferation assay; type: cell-based, murine
T7 construct: fused on or other part: P41212 (Transcription factor ETV6)

BAF/Tel-TRKC-Q2/sACP = target: T8, BAF/Tel-TRKC-Q2/sACP (Homo sapiens, UniProt Q16288); experiment: BaF3 proliferation assay; type: cell-based, murine
T8 construct: fused on or other part: P41212 (Transcription factor ETV6)

BAF/Tel-TRKA-Q.3/sACP = target: T9, BAF/Tel-TRKA-Q.3/sACP (Homo sapiens, UniProt P04629); experiment: BaF3 proliferation assay; type: cell-based, murine
T9 construct: fused on or other part: P41212 (Transcription factor ETV6)
T9 sequence (P04629 510-796 limits assumed, change not shown): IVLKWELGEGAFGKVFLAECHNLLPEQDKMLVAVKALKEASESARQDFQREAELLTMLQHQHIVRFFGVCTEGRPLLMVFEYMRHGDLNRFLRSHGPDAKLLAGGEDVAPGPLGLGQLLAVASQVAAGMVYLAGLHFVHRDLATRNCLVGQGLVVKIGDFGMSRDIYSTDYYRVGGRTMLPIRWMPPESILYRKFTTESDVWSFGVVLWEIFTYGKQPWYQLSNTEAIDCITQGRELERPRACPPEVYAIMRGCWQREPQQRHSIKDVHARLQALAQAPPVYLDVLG

BAF/Tel-AlK-Q1/sACP = target: T10, BAF/Tel-AlK-Q1/sACP (Homo sapiens, UniProt Q9UM73); experiment: BaF3 proliferation assay; type: cell-based, murine
T10 construct: fused on or other part: P41212 (Transcription factor ETV6)

BAF/Tel-JAK3-S1.2/sACP = target: T11, BAF/Tel-JAK3-S1.2/sACP (Homo sapiens, UniProt P52333); experiment: BaF3 proliferation assay; type: cell-based, murine
T11 construct: fused on or other part: P41212 (Transcription factor ETV6)

BAF/Tel-JAK2-1.2/sACP = target: T12, BAF/Tel-JAK2-1.2/sACP (Homo sapiens, UniProt O60674); experiment: BaF3 proliferation assay; type: cell-based, murine
T12 construct: fused on or other part: P41212 (Transcription factor ETV6)

BAF/Tel-JAK1-S1.2/sACP = target: T13, BAF/Tel-JAK1-S1.2/sACP (Homo sapiens, UniProt P23458); experiment: BaF3 proliferation assay; type: cell-based, murine
T13 construct: fused on or other part: P41212 (Transcription factor ETV6)
T13 sequence (P23458 875-1154 limits assumed, change not shown): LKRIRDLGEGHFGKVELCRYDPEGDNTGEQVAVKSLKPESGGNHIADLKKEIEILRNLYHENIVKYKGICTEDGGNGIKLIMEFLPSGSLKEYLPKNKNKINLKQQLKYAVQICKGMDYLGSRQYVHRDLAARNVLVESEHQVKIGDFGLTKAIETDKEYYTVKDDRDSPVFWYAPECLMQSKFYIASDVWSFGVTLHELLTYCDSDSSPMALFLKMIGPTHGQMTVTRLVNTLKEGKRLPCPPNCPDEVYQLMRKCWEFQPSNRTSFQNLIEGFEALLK

BAF/Bcr-Abl-Luc/sACP = target: T14, BAF/Bcr-Abl-Luc/sACP (Homo sapiens, UniProt P00519); experiment: BaF3 proliferation assay; type: cell-based, murine
T14 construct: no part of the key; P11274 (Breakpoint cluster region protein)

BAF/bRaf Pim1-1/sACP = experiment: BaF3 proliferation assay; type: cell-based, murine; settings: Mus musculus
[1] = tested on: all other BaF3 cell lines; experiment: BaF3 proliferation assays, all other cell lines; type: cell-based, murine; settings: Mus musculus, read-out: Cellular EC50, all other BaF3 cell lines
CD206 = CD206 expression in M2a macrophages; type: cell-based, human
Method: (§1) Freshly isolated human PBMCs were used to purify human monocytes by negative selection using an indirect magnetic labeling system. […] Soluble factors such as cytokines (VEGFa, IL-6 etc.) and chemokines (IL-8, MCP-1, MMP9 etc.) in the culture supernatant were measured using commercial ELISA kits. The in vitro survival of human macrophages was measured using a commercially available CellTiter-Glo® system. Most observed results were repeated in multiple donors (n>5).

MCP-1 = MCP-1 production by human monocytes (ELISA); type: cell-based; settings: Monocyte
Method: as §1

Chain of Blk (P51451 whole entry, species assumed): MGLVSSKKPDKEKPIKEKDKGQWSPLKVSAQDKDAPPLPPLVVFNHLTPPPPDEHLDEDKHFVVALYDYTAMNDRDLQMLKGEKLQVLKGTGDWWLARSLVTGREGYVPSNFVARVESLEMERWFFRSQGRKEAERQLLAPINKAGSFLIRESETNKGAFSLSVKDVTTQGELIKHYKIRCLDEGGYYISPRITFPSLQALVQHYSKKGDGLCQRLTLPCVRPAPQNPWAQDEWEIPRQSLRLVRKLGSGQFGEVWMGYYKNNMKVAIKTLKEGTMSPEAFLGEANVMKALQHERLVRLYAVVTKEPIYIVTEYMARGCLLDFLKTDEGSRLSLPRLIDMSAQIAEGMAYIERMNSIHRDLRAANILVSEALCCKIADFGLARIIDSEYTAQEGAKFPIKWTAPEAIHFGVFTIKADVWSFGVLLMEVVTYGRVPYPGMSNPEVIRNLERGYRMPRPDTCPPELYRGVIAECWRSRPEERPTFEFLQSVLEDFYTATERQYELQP
Chain of Aurora_A (O14965 whole entry): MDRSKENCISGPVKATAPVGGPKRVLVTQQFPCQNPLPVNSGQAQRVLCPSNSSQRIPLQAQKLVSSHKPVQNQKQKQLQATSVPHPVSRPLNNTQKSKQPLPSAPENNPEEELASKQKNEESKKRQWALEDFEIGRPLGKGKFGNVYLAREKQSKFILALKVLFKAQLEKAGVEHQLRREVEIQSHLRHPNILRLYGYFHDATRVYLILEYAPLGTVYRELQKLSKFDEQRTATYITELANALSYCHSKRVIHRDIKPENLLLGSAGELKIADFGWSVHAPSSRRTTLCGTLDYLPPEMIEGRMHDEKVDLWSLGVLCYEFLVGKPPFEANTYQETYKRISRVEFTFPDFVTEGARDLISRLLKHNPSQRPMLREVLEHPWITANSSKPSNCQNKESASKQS

Which results are given for `CNC(=O)c1cc(Oc2ccc3nc(NC4CCCCC4O)sc3c2)ccn1` (stereo not shown) [Compound (I)]?
IC50 (Abl): > 10 µM; IC50 (Aurora_A): > 10 µM; IC50 (Blk): > 10 µM; IC50 (Ck1gamma2): > 10 µM; IC50 (Erk1): > 10 µM; IC50 (Hyl): > 10 µM; IC50 (JNK2alpha2): > 10 µM; IC50 (Nek2): > 10 µM; IC50 (PHKG2): > 10 µM; IC50 (PIK3C_VPS34): > 25 µM; IC50 (PIK4Cbeta): > 25 µM; IC50 (Pim2): > 25 µM; IC50 (Pim3): > 25 µM; IC50 (PKC_theta): > 10 µM; IC50 (Ron): > 10 µM; IC50 (TSSK1): > 10 µM; IC50 (ZAP70): > 10 µM; inhibition at 0.5 µM (PDGFRKalphaT674I (h); read-out: % inhibition @ 0.5 μM, PDGFRKalphaT674I (h)): -3%; inhibition at 5 µM (PDGFRKalphaT674I (h); read-out: % inhibition @ 5 μM, PDGFRKalphaT674I (h)): 2%; inhibition at 20 µM (PDGFRKalphaT674I (h); read-out: % inhibition @ 20 μM, PDGFRKalphaT674I (h)): 45%; EC50 (BaF-NPM-ALK): > 10 µM; EC50 (BaF-Tel-KDR): > 10 µM; EC50 (BAF/Tel-EphB2-Q2/sACP): > 10 µM; EC50 (BAF/Tel-FLT4-Q2/sACP): > 10 µM; EC50 (BAF/Tel-KDR-Q4/sACP): > 10 µM; EC50 (BAF/Tel-RET-Q1/sACP): > 10 µM; EC50 (BAF/Tel-TRKC-Q2/sACP): > 10 µM; EC50 (BAF/Tel-TRKA-Q.3/sACP): > 10 µM; EC50 (BAF/Tel-AlK-Q1/sACP): > 10 µM; EC50 (BAF/Tel-JAK3-S1.2/sACP): > 10 µM; EC50 (BAF/Tel-JAK2-1.2/sACP): > 10 µM; EC50 (BAF/Tel-JAK1-S1.2/sACP): > 10 µM; EC50 (BAF/Bcr-Abl-Luc/sACP): > 10 µM; EC50 (BAF/bRaf Pim1-1/sACP): > 10 µM; EC50 [1]: > 10 µM; CD206 expression in M2a (CD206): dose-dependently decreased; inhibition at 0.05 µM (MCP-1): 30 to 70%
